Data: US20230146675A1, “PYRIMIDO[5,4-d]PYRIMIDINE DERIVATIVES AS ENT INHIBITORS FOR THE TREATMENT OF CANCERS, AND COMBINATION THEREOF WITH ADENOSINE RECEPTOR ANTAGONISTS” (ITEOS BELGIUM SA, priority 2020, published 2023)

biological target: T1, human ENT1 (Homo sapiens, UniProt Q99808); assay: ENT1 binding assay (competition with Sahenta-DY647 on JAR cells); set-up: JAR cells expressing ENT1 were bought from ATCC; host or cells: JAR cells; details: binned IC50
T1 sequence (Q99808 1-456): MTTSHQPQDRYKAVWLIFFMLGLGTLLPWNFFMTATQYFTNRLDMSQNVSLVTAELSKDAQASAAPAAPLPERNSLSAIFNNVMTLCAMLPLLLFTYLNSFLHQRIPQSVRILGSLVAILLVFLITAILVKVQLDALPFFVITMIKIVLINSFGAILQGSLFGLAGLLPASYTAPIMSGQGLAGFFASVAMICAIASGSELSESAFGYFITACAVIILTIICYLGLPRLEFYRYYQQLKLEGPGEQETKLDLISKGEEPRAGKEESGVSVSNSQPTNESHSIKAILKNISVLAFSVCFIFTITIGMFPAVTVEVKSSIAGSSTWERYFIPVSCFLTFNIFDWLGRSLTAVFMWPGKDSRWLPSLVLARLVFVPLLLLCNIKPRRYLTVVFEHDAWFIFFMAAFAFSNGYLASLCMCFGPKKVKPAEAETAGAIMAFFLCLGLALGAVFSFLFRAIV
Procedure, shortened: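 JAR cells were incubated with test compounds and the fluorescent ligand Sahenta-DY647 in competition. Plates were washed twice by centrifugation (4 min, 400 rcf, 4 °C). Binding potency was derived from the final fluorescence.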

Row | Structure (SMILES) | IC50
1 | COCCN(CCOC)c1nc(N2CCC(OC)CC2)c2nc(N(CCOC)CCOC)nc(NCc3cnn(C(C)C)c3)c2n1 [Compound 163, N4-((1-isopropyl-1H-pyrazol-4-yl)methyl)-N2,N2,N6,N6-tetrakis(2-methoxyethyl)-8-(4-methoxypiperidin-1-yl)pyrimido[5,4-d]pyrimidine-2,4,6-triamine] | 100 to 500 nM
2 | COCCN(CCOC)c1nc(N2CCC(OC)CC2)c2nc(N(CCOC)CCOC)nc(OCc3cnn(C(C)C)c3)c2n1 [Compound 164, 4-((1-isopropyl-1H-pyrazol-4-yl)methoxy)-N2,N2,N6,N6-tetrakis(2-methoxyethyl)-8-(4-methoxypiperidin-1-yl)pyrimido[5,4-d]pyrimidine-2,6-diamine] | 500 to 1000 nM
3 | COCCN(CCOC)c1nc(N2CCC(OC)CC2)c2nc(N(CCOC)CCOC)nc(N(C)Cc3ccc(OC)c(OC)c3)c2n1 [Compound 169, N4-(3,4-dimethoxybenzyl)-N2,N2,N6,N6-tetrakis(2-methoxyethyl)-8-(4-methoxypiperidin-1-yl)-N4-methylpyrimido[5,4-d]pyrimidine-2,4,6-triamine] | < 100 nM
4 | COCCN(CCOC)c1nc(N2CCC(OC)CC2)c2nc(N(CCOC)CCOC)nc(NCc3ccc(OC)c(OC)c3)c2n1 [Compound 170, N4-(3,4-dimethoxybenzyl)-N2,N2,N6,N6-tetrakis(2-methoxyethyl)-8-(4-methoxypiperidin-1-yl)pyrimido[5,4-d]pyrimidine-2,4,6-triamine] | < 100 nM
5 | COCCN(CCOC)c1nc(N2CCC(OC)CC2)c2nc(N(CCOC)CCOC)nc(NCCCO)c2n1 [Compound 175, 3-((2,6-bis(bis(2-methoxyethyl)amino)-8-(4-methoxypiperidin-1-yl)pyrimido[5,4-d]pyrimidin-4-yl)amino)propan-1-ol] | 500 to 1000 nM
6 | COCCN(CCOC)c1nc(N2CCC(OC)CC2)c2nc(N(CCOC)CCOC)nc(NCCCn3ccnc3)c2n1 [Compound 176, N4-(3-(1H-imidazol-1-yl)propyl)-N2,N2,N6,N6-tetrakis(2-methoxyethyl)-8-(4-methoxypiperidin-1-yl)pyrimido[5,4-d]pyrimidine-2,4,6-triamine] | 500 to 1000 nM

Other lines, results leading:

Row | IC50 | Structure (SMILES)
7 | < 100 nM | CCCN(CCC)c1nc(N(CCOC)CCOC)nc2c(N3CCC(OC)CC3)nc(N(CCOC)CCOC)nc12 [Compound 165, N2,N2,N6,N6-tetrakis(2-methoxyethyl)-8-(4-methoxypiperidin-1-yl)-N4,N4-dipropylpyrimido[5,4-d]pyrimidine-2,4,6-triamine]
8 | 100 to 500 nM | COCCN(CCOC)c1nc(N(C)C2CCCC2)c2nc(N(CCOC)CCOC)nc(N3CCC(OC)CC3)c2n1 [Compound 166, N4-cyclopentyl-N2,N2,N6,N6-tetrakis(2-methoxyethyl)-8-(4-methoxypiperidin-1-yl)-N4-methylpyrimido[5,4-d]pyrimidine-2,4,6-triamine]
9 | 100 to 500 nM | COCCN(CCOC)c1nc(N2CCC(OC)CC2)c2nc(N(CCOC)CCOC)nc(NC3CCCC3)c2n1 [Compound 167, N4-cyclopentyl-N2,N2,N6,N6-tetrakis(2-methoxyethyl)-8-(4-methoxypiperidin-1-yl)pyrimido[5,4-d]pyrimidine-2,4,6-triamine]
10 | < 100 nM | COCCN(CCOC)c1nc(N2CCC(OC)CC2)c2nc(N(CCOC)CCOC)nc(N(C)CC(C)C)c2n1 [Compound 168, N4-isobutyl-N2,N2,N6,N6-tetrakis(2-methoxyethyl)-8-(4-methoxypiperidin-1-yl)-N4-methylpyrimido[5,4-d]pyrimidine-2,4,6-triamine]
11 | 100 to 500 nM | COCCN(CCOC)c1nc(N2CCC(OC)CC2)c2nc(N(CCOC)CCOCCN3C(=O)c4ccccc4C3=O)nc(N3CCC(OC)CC3)c2n1 [Compound 172, 2-(2-(2-((6-(bis(2-methoxyethyl)amino)-4,8-bis(4-methoxypiperidin-1-yl)pyrimido[5,4-d]pyrimidin-2-yl)(2-methoxyethyl)amino)ethoxy)ethyl)isoindoline-1,3-dione]
